Columns and labels:
Format in all cases: in vivo
[1] = test system: Italian ryegrass (Lolium multiflorum); assay: Test B pre-/postemergence plant response
How it was run: (§1)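 Evaluation is visual, about 10 days after application, rating injury from 0 (none) to 100 (complete control) relative to untreated controls. Application was a preemergence soil spray on seeded pots or a postemergence spray on one- to two-leaf plants.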

[2] = test system: barnyardgrass (Echinochloa crus-galli); assay: Test B pre-/postemergence plant response
How it was run: as §1

corn (Zea mays) = assay: Test B pre-/postemergence plant response
How it was run: as §1

[3] = test system: giant foxtail (Setaria faberii); assay: Test B pre-/postemergence plant response
How it was run: as §1

kochia (Kochia scoparia) = assay: Test B pre-/postemergence plant response
How it was run: as §1

[4] = test system: pigweed (Amaranthus retroflexus); assay: Test B pre-/postemergence plant response
How it was run: as §1

[5] = test system: ragweed (common ragweed, Ambrosia elatior); assay: Test B pre-/postemergence plant response
How it was run: as §1

[6] = test system: wheat (Triticum aestivum); assay: Test B pre-/postemergence plant response
How it was run: as §1

[7] = test system: blackgrass (Alopecurus myosuroides); assay: Test B postemergence plant response
How it was run: (§2)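 Values are visual control ratings (0 to 100) recorded approximately 10 days after postemergence application to greenhouse-grown plants of 2 to 10 cm, one- to two-leaf stage, each judged against untreated controls.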

[8] = test system: galium (catchweed bedstraw, Galium aparine); assay: Test B postemergence plant response
How it was run: as §2

[9] = test system: barnyardgrass (Echinochloa crus-galli); assay: Test C flooded paddy test plant response; conditions: Flood, 250 g ai/ha; scale of 0 to 100 where 0 is no effect and 100 is complete control; 13 to 15 days
How it was run: (§3)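 Two-leaf stage → flood to 3 cm → compound into water → hold depth, greenhouse 13–15 d → visual score vs controls (0 none, 100 complete control).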

[10] = test system: ducksalad (Heteranthera limosa); assay: Test C flooded paddy test plant response; conditions: Flood, 250 g ai/ha; scale of 0 to 100 where 0 is no effect and 100 is complete control; 13 to 15 days
How it was run: as §3

rice (Oryza sativa) = assay: Test C flooded paddy test plant response; conditions: Flood, 250 g ai/ha; scale of 0 to 100 where 0 is no effect and 100 is complete control; 13 to 15 days
How it was run: as §3

[11] = test system: small-flower umbrella sedge (Cyperus difformis); assay: Test C flooded paddy test plant response; conditions: Flood, 250 g ai/ha; scale of 0 to 100 where 0 is no effect and 100 is complete control; 13 to 15 days
How it was run: as §3

[12] = 31 g ai/ha, Preemergence, 0 to 100 scale where 0 is no effect and 100 is complete control
[13] = 125 g ai/ha, postemergence, 0 to 100 scale, 0 no effect, 100 complete control
[14] = Postemergence, 31 g ai/ha, 0 to 100 scale (0 no effect, 100 complete control)
[15] = Preemergence, 125 g ai/ha, 0 to 100 scale (0 no effect, 100 complete control)

SMILES | Plant response rating, Ryegrass, Italian [1, 12] | Plant response rating, Ryegrass, Italian [1, 13] | Plant response rating, Ryegrass, Italian [1, 14] | Ryegrass, Italian plant response rating [1, 15] | Plant response rating, Barnyardgrass [2, 12] | Plant response rating, Barnyardgrass [2, 13] | Plant response rating, Barnyardgrass [2, 14] | Barnyardgrass plant response rating [2, 15] | Plant response rating, Corn (corn (Zea mays); [13]) | Plant response rating, Corn (corn (Zea mays); [14]) | Plant response rating, Foxtail, Giant [3, 12] | Plant response rating, Foxtail, Giant [3, 13] | Plant response rating, Foxtail, Giant [3, 14] | Foxtail, Giant plant response rating [3, 15] | Plant response rating, Kochia (kochia (Kochia scoparia); [12]) | Plant response rating, Kochia (kochia (Kochia scoparia); [13]) | Plant response rating, Kochia (kochia (Kochia scoparia); [14]) | Kochia plant response rating (kochia (Kochia scoparia); [15]) | Plant response rating, Pigweed [4, 12] | Plant response rating, Pigweed [4, 13] | also measured
Clc1cnc(Oc2ccccc2-c2ccsc2)nc1 [Compound 231] | 0 | 0 | 0 | 0 | 0 | 10 | 0 | 10 | 0 | 0 | 0 | 10 | 0 | 10 | 0 | 40 | 20 | 0 | 0 | 40 | Plant response rating, Pigweed [4, 14]: 20; Pigweed plant response rating [4, 15]: 20; Plant response rating, Ragweed [5, 12]: 0; Plant response rating, Ragweed [5, 13]: 0; Plant response rating, Ragweed [5, 14]: 0; Ragweed plant response rating [5, 15]: 0; Plant response rating, Wheat [6, 13]: 0; Plant response rating, Wheat [6, 14]: 0; Plant response rating, Blackgrass [7, 13]: 0; Plant response rating, Blackgrass [7, 14]: 0; Plant response rating, Galium [8, 13]: 20; Plant response rating, Galium [8, 14]: 0; Barnyardgrass plant response rating [9]: 0; Ducksalad plant response rating [10]: 65; Rice plant response rating (rice (Oryza sativa)): 0; Sedge, Umbrella plant response rating [11]: 70
Brc1cnc(Oc2ccccc2-c2ccsc2)nc1 [Compound 232] | 0 | 0 | 0 | 0 | 0 | 0 | 0 | 20 | 0 | 0 | 0 | 0 | 0 | 10 | 0 | 0 | 0 | 0 | 20 | 40 | Plant response rating, Pigweed [4, 14]: 10; Pigweed plant response rating [4, 15]: 30; Plant response rating, Ragweed [5, 12]: 0; Plant response rating, Ragweed [5, 13]: 0; Plant response rating, Ragweed [5, 14]: 0; Ragweed plant response rating [5, 15]: 0; Plant response rating, Wheat [6, 13]: 0; Plant response rating, Wheat [6, 14]: 0; Plant response rating, Blackgrass [7, 13]: 0; Plant response rating, Blackgrass [7, 14]: 0; Plant response rating, Galium [8, 13]: 0; Plant response rating, Galium [8, 14]: 0; Barnyardgrass plant response rating [9]: 0; Ducksalad plant response rating [10]: 0; Rice plant response rating (rice (Oryza sativa)): 0; Sedge, Umbrella plant response rating [11]: 0
Clc1cnc(Oc2ccccc2-c2ccns2)nc1 [Compound 233] | 0 | 0 | 0 | 0 | 0 | 10 | 0 | 0 | 10 | 0 | 0 | 0 | 0 | 0 | 0 | 0 | 0 | 0 | 0 | 20 | Plant response rating, Pigweed [4, 14]: 0; Pigweed plant response rating [4, 15]: 0; Plant response rating, Ragweed [5, 12]: 0; Plant response rating, Ragweed [5, 13]: 0; Plant response rating, Ragweed [5, 14]: 0; Ragweed plant response rating [5, 15]: 0; Plant response rating, Wheat [6, 13]: 0; Plant response rating, Wheat [6, 14]: 0; Plant response rating, Blackgrass [7, 13]: 10; Plant response rating, Blackgrass [7, 14]: 0; Plant response rating, Galium [8, 13]: 0; Plant response rating, Galium [8, 14]: 0; Barnyardgrass plant response rating [9]: 0; Ducksalad plant response rating [10]: 0; Rice plant response rating (rice (Oryza sativa)): 0; Sedge, Umbrella plant response rating [11]: 0
Brc1cnc(Oc2ccccc2-c2ccns2)nc1 [Compound 234] | 0 | 0 | 0 | 0 | 0 | 0 | 0 | 0 | 10 | 0 | 0 | 0 | 0 | 0 | 0 | 0 | 0 | 0 | 0 | 20 | Plant response rating, Pigweed [4, 14]: 0; Pigweed plant response rating [4, 15]: 0; Plant response rating, Ragweed [5, 12]: 0; Plant response rating, Ragweed [5, 13]: 10; Plant response rating, Ragweed [5, 14]: 0; Plant response rating, Wheat [6, 13]: 0; Plant response rating, Wheat [6, 14]: 0; Plant response rating, Blackgrass [7, 13]: 10; Plant response rating, Blackgrass [7, 14]: 0; Plant response rating, Galium [8, 13]: 0; Plant response rating, Galium [8, 14]: 0; Barnyardgrass plant response rating [9]: 0; Ducksalad plant response rating [10]: 0; Rice plant response rating (rice (Oryza sativa)): 0; Sedge, Umbrella plant response rating [11]: 0
